Results as given in patent US20220062440A1, “OLIGOMER-SELECTIVE FLUORESCENT INDICATOR DYES” (University of South Florida, priority 2018, published 2022).
“Also recorded” adds a separate entry of the source. Read-outs that look alike come from different tables or passages of the source.

Tests used:
[1] = tested on: amyloid aggregates (gO/CF and RF); details: cited from earlier work; for Response to gO/CF vs. RF aggregates (selectivity): literature / background statement
[2] = target: T1, hen egg-white lysozyme (hewL) amyloid aggregates: gO/CFs vs. RFs (Gallus gallus, UniProt P00698); test: Kinetic dye screening assay: dye fluorescence response during sigmoidal vs. biphasic amyloid assembly, ThT as reference; format: binding; details: for Fluorescence response to initial gO/CF (oligomer) phase of biphasic growth / Fluorescence response to RF nucleation and growth: hewL, pH 2, 52° C.; for Fluorescence response to initial gO/CF (oligomer) phase of biphasic growth: above COC (biphasic regime); for Fluorescence response to RF nucleation and growth: second phase of biphasic growth or sigmoidal growth; for Oligomer (gO/CF) selectivity over fibrils: hewL amyloid assembly, sigmoidal vs. biphasic kinetics
T1 construct: hen egg-white lysozyme (hewL); from tissue
Text: A kinetic assay that clearly delineates growth conditions dominated by gO/CF or RF formation as simple function of protein concentration was developed. This kinetic assay was used in conjunction with high-resolution (AFM or TEM) imaging of aggregate morphologies to identify dyes that display well-defined selectivity of gO/CFs over RFs (FIGS. 1A-1E).
The basis of the kinetic assay is the existence of a “critical oligomer concentration” or COC, distinct from and higher than the protein concentration required for fibril growth [Tatiana Miti, et al. Biomacromolecules (2015) 16:326-335]. Using both hen-egg white lysozyme and a dimeric Aβ construct, it was shown that crossing this COC causes a sharp transition in ThT kinetics from the ubiquitous “sigmoidal” growth kinetics of nucleated polymerization to lag-free bimodal kinetics. The initial phase of bimodal growth is dominated by gO/CF formation while the secondary upswing indicates RF nucleation and growth [Filip Hasecke, et al. Chem. Sci. (2018) 9: 5937-5948]. When below this COC HEWL grows RFS aggregates with a distinct lag phase before the start of growth. Monitoring dye responses both below and above the COC allows rapid determination whether a given fluorescent dye responds only to the initial gO/CF or subsequent RF phase of amyloid growth.
Kinetic transition is an indicator of oligomer formation (Hasecke F. et al., Chem. Sci., 2018 9:5937-5948). The onset of gO/CF formation is delineated by a threshold protein concentration referred to herein as the “critical oligomer concentration” or COC. […] No populations of gO/CFs are observed. In contrast, gO/CF formation above the COC has no lag periods and results in biphasic kinetics (saturating gO/CF kinetics is superimposed to sigmodal RF kinetics). AFM confirms that the initial phase represents gO/CF formation while the second phase indicates RF nucleation and growth. Using this transition from sigmoidal to biphasic kinetics provides an efficient assay for screening dyes for their response to these distinct aggregate species.
Instead of requiring isolation and stabilization of amyloid oligomers, the dye screening protocol proposed here takes the identification of two distinct amyloid assembly regimes with distinctly different assembly kinetics (see FIG. 6 and Hasecke, F., et al. Chemical Science, 2018. 9:5937-5948). […] Following the initial lag phase, this regime yields pure populations of “traditional” rigid fibrils (RFs). It lacks any detectable populations of metastable globular oligomers (gOs) or curvilinear fibrils (CFs) during any stage of fibril assembly. Upon crossing a threshold protein (or salt) concentration a second, oligomer-dominated regime emerges. This regime is characterized by lag-free formation of readily detectable populations of gOs and CFs during its initial phase, with RFs emerging in a second growth phase. The transition to this regime is characterized by a concurrent switch in ThT-monitored assembly kinetics from sigmoidal to biphasic kinetics (Hasecke, F., et al. Chemical Science, 2018. 9:5937-5948; Miti, T., et al. Biomacromolecules, 2015. 16:326-335; Foley, J., et al. J Chem Phys., 2013. 139:121901; Hill, S. E., et al. PLoS ONE, 2011. 6:e18171). Monitoring fluorescence responses of dyes to amyloid assembly under either sigmoidal or biphasic growth conditions provides a direct and straight-forward readout for their selectivity to oligomer over fibril formation.
Using the above transition in the model amyloid hewL a small subset of about one dozen dyes were screened for oligomer-selective responses. Oligomer-free sigmoidal kinetics provided the read-out for dye responses to pure fibril formation—relative to the ThT response recorded under the same conditions. Responsiveness of dyes to gO/CF formation was evaluated during the initial gO/CF phase of biphasic kinetics, as long as it was well separated from the second RF-related upswing. […]

[3] = target: T2, hen egg-white lysozyme (hewL) amyloid aggregates (Gallus gallus, UniProt P00698); test: AFM imaging of hewL aggregate morphologies during biphasic growth in the presence of dye; details: 5 mg/ml hewL, pH 2, 52° C., CV 5 μM, listed as CV
T2 construct: hen egg-white lysozyme (hewL); from tissue
Text: FIG. 8B contains AFM images from aliquots taken during biphasic amyloid growth in FIG. 8A from the CV wells at the indicated time points. […] This kinetic assay was used in conjunction with high-resolution (AFM or TEM) imaging of aggregate morphologies to identify dyes that display well-defined selectivity of gO/CFs over RFs (FIGS. 1A-1E). Using the above transition in the model amyloid hewL a small subset of about one dozen dyes were screened for oligomer-selective responses. Oligomer-free sigmoidal kinetics provided the read-out for dye responses to pure fibril formation—relative to the ThT response recorded under the same conditions. Responsiveness of dyes to gO/CF formation was evaluated during the initial gO/CF phase of biphasic kinetics, as long as it was well separated from the second RF-related upswing. Even this very limited and fairly arbitrary set of dyes yielded three different dyes with a modest level of oligomer-specific responses (FIG. 7). While encouraging, the level of oligomer selectivity, the overall fluorescence change upon either fibril or oligomer formation, or the rapid bleaching of the dyes under these growth conditions didn't warrant further investigation. […] It confirms that the progression of hewL aggregates during biphasic growth is not altered by the presence of CV.

T1 sequence (P00698 19-147): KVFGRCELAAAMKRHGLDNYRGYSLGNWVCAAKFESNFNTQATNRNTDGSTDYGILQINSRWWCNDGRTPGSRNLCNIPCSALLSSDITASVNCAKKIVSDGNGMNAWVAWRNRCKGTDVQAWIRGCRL
T2 sequence (P00698 19-147): as above

N#CC(C#N)=Cc1cc2c3c(c1)CCCN3CCC2 [DCVJ, 9-(Dicyanovinyl) Julolidine]
Response to gO/CF vs. RF aggregates (selectivity) [1]: some oligomer selectivity

N#CC(C#N)=Cc1ccc(-c2ccc(-c3ccc(O)cc3)s2)s1 [NIAD-4]
Response to gO/CF vs. RF aggregates (selectivity) [1]: preferentially respond to late stage RFs instead of gOs and CFs

Cc1ccc2c(c1)sc(-c1ccc(N(C)C)cc1)[n+]2C.[Cl-] [ThT, reference compound]
Fluorescence response to initial gO/CF (oligomer) phase of biphasic growth [2]: robust response to the initial gO/CF dominated phase; also recorded: expected biphasic behavior as the sample grows gO/CFs up to a first plateau; also recorded: weak biphasic response; also recorded: identical response to amyloid growth prior to the onset of RF formation
Fluorescence response to RF nucleation and growth [2]: readily picked up; also recorded: second upswing and plateau indicating the onset of RF nucleation and growth; also recorded: continues to rise following RF nucleation
Response to gO/CF vs. RF aggregates (selectivity) [1]: responds to both gO/CF and RF aggregates, albeit with different sensitivities; also recorded: highly skewed towards late-stage amyloid fibrils
Response to gO/CF vs. RF aggregates (selectivity) ([1]; listed as Thioflavin T): considerably less enhanced by gO/CF vs. RF formation
Response to gO/CF vs. RF aggregates (selectivity) ([1]; listed as thioflavin T): preferentially respond to late stage RFs instead of gOs and CFs

O=C(O)c1cc(/C=C/c2ccc(/C=C/c3ccc(O)c(C(=O)O)c3)cc2)ccc1O [X-34, reference compound]
Oligomer (gO/CF) selectivity over fibrils [2]: (weak) select responses to oligomer-dominated phase

CC1=C/C(=C(\c2ccc(N)c(S(=O)(=O)[O-])c2)c2ccc(N)c(S(=O)(=O)O)c2)C=C(S(=O)(=O)[O-])C1=N.[Na+].[Na+] [acid fuchsin, reference compound]
Oligomer (gO/CF) selectivity over fibrils [2]: (weak) select responses to oligomer-dominated phase

CN(C)c1ccc2cc3ccc(N(C)C)cc3nc2c1 [acridine orange, reference compound]
Oligomer (gO/CF) selectivity over fibrils [2]: (weak) select responses to oligomer-dominated phase

Nc1c(/N=N/c2ccc(-c3ccc(/N=N/c4cc(S(=O)(=O)O)c5ccccc5c4N)cc3)cc2)cc(S(=O)(=O)O)c2ccccc12 [congo red]
Response to gO/CF vs. RF aggregates (selectivity) [1]: preferentially respond to late stage RFs instead of gOs and CFs

CN(C)c1ccc(C(=C2C=CC(=[N+](C)C)C=C2)c2ccc(N(C)C)cc2)cc1 [crystal violet, tris(4-(dimethylamino)phenyl)methylium chloride]
Oligomer (gO/CF) selectivity over fibrils [2]: oligomer-selective dye and noticeable oligomer selectivity and OSD and preferentially enhanced upon binding to gO/CFs
Fluorescence response to initial gO/CF (oligomer) phase of biphasic growth [2]: responds nearly exclusively to the initial (oligomer) phase; also recorded: identical response to amyloid growth prior to the onset of RF formation
Fluorescence response to initial gO/CF (oligomer) phase of biphasic growth ([2]; listed as CV): robust response to the initial gO/CF dominated phase
Fluorescence response to initial gO/CF (oligomer) phase of biphasic growth ([2]; listed as Crystal violet): closely match the kinetics of the initial gO/CF phase in ThT kinetics
Fluorescence response to RF nucleation and growth [2]: weak fibril response; also recorded: little or no response to the onset of RF formation; also recorded: level off
Fluorescence response to RF nucleation and growth ([2]; listed as CV): lacks the upswing to subsequent RF nucleation and growth; also recorded: weak response to RF formation
Fluorescence response to RF nucleation and growth ([2]; listed as Crystal violet): very weak responses upon the onset of RF formation
Temporal correlation of dye signal with ThT signal ([2]; sigmoidal and initial phase of biphasic growth of hewL): one-to-one temporal correlation
Effect of dye on aggregate types / progression of aggregates (AFM) [3]: not altered; also recorded: did not alter the types of aggregates observed
Amyloid staining ([1]; literature (Cooper 1969)): weak metachromatic amyloid stain

methyl violet
Oligomer (gO/CF) selectivity over fibrils [2]: noticeable oligomer selectivity
